Assay results reported in ChEMBL document CHEMBL3392959, “Iminosugars as a new class of cholinesterase inhibitors” (Bioorg Med Chem Lett, 2015).
The source made the active and inactive calls. The rule behind the calls is not given here.

Experiments:
[1] = biological target: T1, Acetylcholinesterase (Homo sapiens, UniProt P22303); experiment: Inhibition of human recombinant AchE using acetylthiocholine iodide as substrate at 250 uM by Ellman method
[2] = biological target: Acetylcholinesterase (Electrophorus electricus) (UniProt O42275); experiment: Inhibition of electric eel AchE using acetylthiocholine iodide as substrate at 250 uM by Ellman method
Chain of Acetylcholinesterase (Electrophorus electricus) (O42275 24-633 limits assumed): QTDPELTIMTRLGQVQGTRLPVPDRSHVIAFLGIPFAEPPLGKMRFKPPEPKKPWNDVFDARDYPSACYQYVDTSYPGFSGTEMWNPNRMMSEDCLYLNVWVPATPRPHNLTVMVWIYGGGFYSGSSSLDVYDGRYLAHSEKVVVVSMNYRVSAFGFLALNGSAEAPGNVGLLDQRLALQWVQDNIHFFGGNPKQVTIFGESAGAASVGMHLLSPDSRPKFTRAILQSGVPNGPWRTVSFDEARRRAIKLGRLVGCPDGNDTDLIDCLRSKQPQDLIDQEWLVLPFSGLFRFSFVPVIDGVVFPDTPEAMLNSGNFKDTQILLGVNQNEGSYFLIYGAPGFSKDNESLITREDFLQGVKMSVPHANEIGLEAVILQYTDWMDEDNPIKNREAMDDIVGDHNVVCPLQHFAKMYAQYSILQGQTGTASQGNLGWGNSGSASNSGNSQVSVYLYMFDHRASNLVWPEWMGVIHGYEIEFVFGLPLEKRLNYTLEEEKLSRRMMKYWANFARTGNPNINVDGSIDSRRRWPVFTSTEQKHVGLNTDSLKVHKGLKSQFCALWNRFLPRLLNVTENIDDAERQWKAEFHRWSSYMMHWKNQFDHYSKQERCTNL

[3] = biological target: T2, Cholinesterase (Homo sapiens, UniProt P06276); experiment: Inhibition of human recombinant serum BuchE using butyrylthiocholine iodide as substrate at 250 uM by Ellman method
T2 sequence (P06276 whole entry): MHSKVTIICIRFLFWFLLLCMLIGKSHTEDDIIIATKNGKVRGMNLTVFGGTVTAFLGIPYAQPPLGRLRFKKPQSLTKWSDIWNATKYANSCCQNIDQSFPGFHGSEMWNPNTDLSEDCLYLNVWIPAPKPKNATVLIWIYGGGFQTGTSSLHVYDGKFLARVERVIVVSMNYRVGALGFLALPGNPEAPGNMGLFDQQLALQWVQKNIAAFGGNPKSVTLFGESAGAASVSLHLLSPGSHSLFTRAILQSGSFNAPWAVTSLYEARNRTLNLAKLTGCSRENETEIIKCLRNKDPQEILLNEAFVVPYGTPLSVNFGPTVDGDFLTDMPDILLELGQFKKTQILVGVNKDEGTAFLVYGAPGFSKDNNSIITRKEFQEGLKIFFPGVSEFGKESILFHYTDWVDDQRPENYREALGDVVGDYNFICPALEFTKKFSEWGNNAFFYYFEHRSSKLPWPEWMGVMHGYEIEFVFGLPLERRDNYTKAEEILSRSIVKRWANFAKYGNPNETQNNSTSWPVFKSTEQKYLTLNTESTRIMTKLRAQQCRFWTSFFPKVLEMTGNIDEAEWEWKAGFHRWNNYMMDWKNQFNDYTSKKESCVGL

[4] = biological target: T2, Cholinesterase
Description: Inhibition of human recombinant serum BuchE using butyrylthiocholine iodide as substrate by Ellman method

[5] = biological target: T1, Acetylcholinesterase
Description: Inhibition of human recombinant AchE using acetylthiocholine iodide as substrate by Ellman method

[6] = biological target: Acetylcholinesterase (Electrophorus electricus, UniProt O42275); experiment: Inhibition of electric eel AchE using acetylthiocholine iodide as substrate by Ellman method
Chain of Acetylcholinesterase (Electrophorus electricus, UniProt O42275) (O42275 whole entry): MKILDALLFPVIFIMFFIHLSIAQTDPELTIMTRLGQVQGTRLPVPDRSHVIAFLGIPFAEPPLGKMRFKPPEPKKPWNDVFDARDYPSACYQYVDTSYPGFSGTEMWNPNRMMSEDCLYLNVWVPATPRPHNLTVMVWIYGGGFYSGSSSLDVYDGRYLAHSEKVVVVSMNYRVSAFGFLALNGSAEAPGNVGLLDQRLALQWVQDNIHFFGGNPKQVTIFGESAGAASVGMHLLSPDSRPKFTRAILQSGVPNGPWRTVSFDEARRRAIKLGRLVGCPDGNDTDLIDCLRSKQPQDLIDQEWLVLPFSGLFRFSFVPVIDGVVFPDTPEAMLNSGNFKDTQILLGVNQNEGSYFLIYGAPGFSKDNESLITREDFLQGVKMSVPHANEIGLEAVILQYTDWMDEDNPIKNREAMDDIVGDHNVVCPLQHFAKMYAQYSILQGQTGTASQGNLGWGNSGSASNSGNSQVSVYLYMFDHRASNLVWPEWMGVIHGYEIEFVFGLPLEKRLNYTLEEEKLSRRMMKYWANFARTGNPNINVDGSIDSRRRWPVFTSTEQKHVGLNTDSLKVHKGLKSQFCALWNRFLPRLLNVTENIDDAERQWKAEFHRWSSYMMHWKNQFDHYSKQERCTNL

T1 sequence (P22303 whole entry): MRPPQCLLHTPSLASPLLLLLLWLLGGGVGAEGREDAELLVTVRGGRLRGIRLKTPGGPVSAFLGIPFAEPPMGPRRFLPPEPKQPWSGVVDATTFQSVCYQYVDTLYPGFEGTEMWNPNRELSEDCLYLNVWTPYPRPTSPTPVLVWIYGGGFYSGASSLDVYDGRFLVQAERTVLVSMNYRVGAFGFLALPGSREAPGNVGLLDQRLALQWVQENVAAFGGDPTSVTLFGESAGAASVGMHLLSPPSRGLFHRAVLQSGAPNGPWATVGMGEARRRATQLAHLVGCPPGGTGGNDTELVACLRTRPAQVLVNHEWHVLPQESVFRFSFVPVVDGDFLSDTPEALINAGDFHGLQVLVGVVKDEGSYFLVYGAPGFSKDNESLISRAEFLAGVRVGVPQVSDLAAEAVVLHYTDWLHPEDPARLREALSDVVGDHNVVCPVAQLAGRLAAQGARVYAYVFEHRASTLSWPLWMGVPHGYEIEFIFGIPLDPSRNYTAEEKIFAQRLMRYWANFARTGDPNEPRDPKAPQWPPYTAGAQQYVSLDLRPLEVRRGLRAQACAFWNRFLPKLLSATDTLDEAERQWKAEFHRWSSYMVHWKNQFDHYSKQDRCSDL

| Compound | inhibition [1] | inhibition [2] | inhibition [3] | IC50 [4] [µM] | IC50 [5] [µM] | IC50 [6] [µM] |
| --- | --- | --- | --- | --- | --- | --- |
| CCCCCCCCN1C[C@@H](O)[C@H](O)[C@@H](O)[C@H]1CCC | inactive | inactive | inactive | – | – | – |
| CCCCCCCCO[C@H]1[C@H](O)[C@@H](O)CN(CCCCCCCC)[C@@H]1CO | inactive | inactive | inactive | – | – | – |
| CCC[C@@H]1NC[C@@H](O)[C@H](O)[C@H]1O | < 50% | < 50% | – | 210 | – | – |
| C=CC[C@@H]1[C@H](O)[C@@H](O)[C@H](O)CN1CCCCCCCC | < 50% | < 50% | – | 161 | – | – |
| CCCCCCO[C@H]1CNC[C@@H](O)[C@@H]1O | inactive | inactive | inactive | – | – | – |
| CCCCCC[C@H]1N[C@@H](CO)[C@@H](O)[C@H](O)[C@H]1O | inactive | inactive | inactive | – | – | – |
| CCCCCC[C@H]1NC[C@@H](O)[C@H](O)[C@H]1O | inactive | inactive | inactive | – | – | – |
| O[C@@H]1[C@@H](O)[C@@H](Cc2cn(CCC(c3ccccc3)c3ccccc3)nn2)NC[C@H]1O | < 50% | < 50% | – | 15 | – | – |
| C=CC[C@H]1NC[C@@H](O)[C@H](OCc2ccccc2)[C@H]1O | < 50% | < 50% | – | 61 | – | – |
| CCCCCCCCC[C@H]1NC[C@@H](O)[C@H](O)[C@H]1O | inactive | inactive | inactive | – | – | – |
| C=CC[C@H]1NC[C@@H](O)[C@H](O)[C@H]1O | inactive | inactive | inactive | – | – | – |
| O=C1N[C@H](COCc2ccccc2)[C@@H](OCc2ccccc2)[C@H](OCc2ccccc2)[C@H]1OCc1ccccc1 | – | – | – | 4 | 46 | 2 |
| O[C@@H]1[C@@H](O)[C@@H](Cc2cn(Cc3ccccc3)nn2)NC[C@H]1O | inactive | inactive | inactive | – | – | – |
| C[Si](C)(C)CCCn1cc(C[C@H]2NC[C@@H](O)[C@H](O)[C@H]2O)nn1 | inactive | inactive | inactive | – | – | – |
| O[C@@H]1[C@@H](OCc2ccccc2)[C@@H](Cc2cn(Cc3ccccc3)nn2)NC[C@H]1O | < 50% | < 50% | – | 7 | – | – |
| CCCc1cn(CCCCCCN2C[C@H](O)[C@@H](O)[C@H](O)[C@H]2CO)nn1 | inactive | inactive | inactive | – | – | – |
| O[C@@H]1[C@@H](O)[C@@H](Cc2cn(Cc3cc(OCc4ccccc4)cc(OCc4ccccc4)c3)nn2)NC[C@H]1O | < 50% | < 50% | – | 1.2 | – | – |
| CCCCN1C[C@@H](O)[C@H](O)[C@@H](O)[C@H]1CCC | inactive | inactive | inactive | – | – | – |
| c1ccc(COC[C@H]2NC[C@H](OCc3ccccc3)[C@@H](OCc3ccccc3)[C@@H]2OCc2ccccc2)cc1 | – | – | – | 2 | 60 | 3 |
| C#CC[C@H]1NC[C@@H](O)[C@H](O)[C@H]1OCc1ccccc1 | inactive | inactive | inactive | – | – | – |
| CCCCCCCCO[C@H]1CN(CCCCCCCC)[C@H](CO)[C@H](O)[C@@H]1O | inactive | inactive | inactive | – | – | – |
| C=CC[C@@H]1[C@H](O)[C@@H](OCc2ccccc2)[C@H](O)CN1CCCCCCCC | – | – | – | 3 | 22 | 63 |
| CCCCCCCCCCn1cc(C[C@H]2NC[C@@H](O)[C@H](O)[C@H]2O)nn1 | inactive | inactive | inactive | – | – | – |
